In brackets after ≈: the same amount, converted by molar mass.
How the values were obtained:
[1] = target: T1, alpha 2B-AR (Homo sapiens, UniProt P18089); assay: Intrinsic activity assay, antagonist mode, cells with stable expression of the α2B-adrenoceptor; format: cell-based; conditions: antagonist potency, read-out: Antagonist mode (IC50 ± SEM)
T1 sequence (P18089 1-450): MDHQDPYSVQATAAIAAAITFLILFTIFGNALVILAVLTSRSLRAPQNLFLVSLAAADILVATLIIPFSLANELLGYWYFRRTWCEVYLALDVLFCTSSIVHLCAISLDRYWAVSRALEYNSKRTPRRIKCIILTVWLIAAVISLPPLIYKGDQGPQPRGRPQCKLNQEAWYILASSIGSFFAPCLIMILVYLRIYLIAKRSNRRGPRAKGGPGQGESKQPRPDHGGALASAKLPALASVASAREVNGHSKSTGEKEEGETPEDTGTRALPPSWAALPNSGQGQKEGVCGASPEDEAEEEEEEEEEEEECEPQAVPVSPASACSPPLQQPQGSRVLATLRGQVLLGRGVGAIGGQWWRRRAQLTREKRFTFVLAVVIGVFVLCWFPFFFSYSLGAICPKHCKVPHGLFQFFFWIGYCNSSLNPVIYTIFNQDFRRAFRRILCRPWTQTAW
Protocol: An intrinsic activity assay was performed according to the instructions of the manufacturer of the assay kit containing ready-to-use cells with stable expression of the α2A-adrenoceptor (In-vitrogen, Life Technologies, Carlsbad, CA, USA) or α2B-adrenoceptor (PerkinElmer, Inc, Waltham, MA, USA).
Considering that a potent blockade of alpha 2B-ARs is required for the antiplatelet effect[8] ^, [9] we began an assessment of a pharmacological profile of all the synthesized molecules (3–11) with the evaluation of their alpha 2B-ARs antagonistic properties.

[2] = tested on: whole rat blood aggregation induced by ADP and adrenaline; assay: In vitro whole blood aggregation test induced by ADP and adrenaline (Multiplate); format: cell-based; conditions: for IC50: whole rat blood, ADP and adrenaline 1.6 µM + 50 µM, read-out: B (ADP + A) IC50
Protocol: (§1) In vitro aggregation tests were conducted using freshly collected whole blood with Multiplate platelet function analyzer (Roche Diagnostics Polska Sp. z o.o., Warsaw, Poland), the five-channel aggregometer based on measurements of electric impedance. The Multiplate analyzer allows the duplicate measurement with dual electrode probes. Blood was drawn from carotid of rats with hirudin blood tube (Roche Diagnostic). 300 μL of hirudin anticoagulated blood was mixed with 300 μL pre-warmed isotonic saline solution containing studied compound in DMSO or DMSO (0.1% final) and pre-incubated for 3 min at 37 °C with continuous stirring. The agonists (ADPtest, COLtest, Roche Diagnostic) were diluted using isotonic sterile NaCl solution. Aggregation was induced by adding collagen (final concentration 1.6 µg/mL), or adrenaline and subthreshod concentration of ADP (final concentration 50 µM + 1.6 µM). Activated platelet function was recorded for 6 min. The Multiplate software analyzed the area under the curve of the clotting process of each measurement and calculated the mean values.
(§2) Data were presented as Mean ± SEM. Statistical comparisons were made by the analysis of variance (ANOVA) and significance of the differences between control group and treated groups was determined by Dunnet post hoc test. p < .05 was considered significant.
(§3) Based on the aforementioned results, the most interesting compounds (3, 4, 9, and 10) were selected for further studies. In order to evaluate the anti-platelet effects of the new compounds in vitro, freshly isolated rat whole blood was incubated with selected compounds (3–100 μM) or vehicle (DMSO), and the aggregation responses were evaluated with multiplate whole blood aggregometer by measuring impedance change. Platelet aggregation was induced by collagen or sub-threshold concentration of ADP and adrenaline. ARC-239 was used as a reference compound.
Combining adrenaline with the sub-threshold concentration of ADP produced a maximal aggregation response. The adrenaline-mediated amplification of ADP-stimulated aggregation was attenuated when rat blood was pre-incubated with 3, 9, 10, and ARC-239.

[3] = tested on: whole rat blood aggregation induced by collagen; assay: In vitro whole blood aggregation test induced by collagen (Multiplate); format: cell-based; conditions: for IC50: whole rat blood, collagen 1.6 µg/mL; for anti-platelet efficacy at lower concentration: compound at 30 μM
Protocol: as §1, §2, §3

[4] = target: alpha 1-ARs; assay: Radioligand binding assay, displacement of [3H]prazosin on rat cerebral cortex; conditions: read-out: Affinity for alpha 1-ARs Ki ± SD
Protocol: The affinity of the obtained compounds was evaluated by radioligand binding assays (the ability to displace [3H] prazosin and [3H]clonidine from a1- and a2-AR, respectively) on rat cerebral cortex. The brains are homogenised in 20 volumes of an ice-cold 50 mM Tris–HCl buffer (pH 7.6) and is centrifuged at 20,000 g for 20 min (0–4 °C). The cell pellet is resus-pended in the Tris–HCl buffer and centrifuged again. Radioligand binding assays are performed in plates (MultiScreen/Millipore). The final incubation mixture (final volume 300 μL) consisted of 240 µl of the membrane suspension, 30 μL of [3H]prazosin (0.2 nM) or [3H]clonidine (2 nM) solution and 30 μL of the buffer containing seven to eight concentrations (1.0^−11 to 1.0^−4 M) of the tested compounds. For measuring the unspecific binding, phentolamine, 10 µM (in the case of [3H]prazosin) and clonidine, 10 μM (in the case of [3H]clonidine) are applied. The incubation is terminated by rapid filtration over glass fiber filters (Whatman GF/C) using a vacuum manifold (Millipore). The filters are then washed twice with the assay buffer and placed in scintillation vials with a liquid scintillation cocktail. Radioactivity was measured in a WALLAC 1409 DSA liquid scintillation counter. All the assays were performed in duplicate.
Subsequently, we determined the selectivity vs. alpha 1-adrenoreceptor (Table 4). The final compounds 3–11 were submitted to a radioligand binding assay, measuring the ability to displace [^3H] prazosin from alpha 1-ARs, in the rat cerebral cortex. […] On the other hand, the introduction of a hydrophobic group into meta position of the phenylpiperazine ring (3, 4, 5, 6) caused a relatively weaker decrease. […] The incorporation of a bulky substituents such as; 2,2-dimethylbenzo[d][1,3]dioxole (9), benzo[d]oxazol-2(3H)-one (10), 2H-benzo[b][1,4]oxazin-3(4H)-one (11) maintained the affinity for alpha1-ARs.

[5] = Metabolic stability (liver microsomes, human); format: in vitro ADME
Protocol: (§4) The in vitro bioavailability assays were performed by Eurofins Panlabs Inc. (St Charles, USA) according to the methods reported in publications listed below:
Microsomal stability: Obach, R.S et al. (1997) J Pharmacol Exp Ther, 283:[…][35].
(§5) Concerning the described above results, for the most promising compound 3, we performed early in vitro bioavailability assays, including aqueous solubility, human plasma protein binding, human liver microsomes stability, and Caco-2 permeability (Eurofins Bioavailability panel).

[6] = Protein binding (plasma, human); format: in vitro ADME; conditions: 1.0E-05 M
Protocol: as §4
Protein binding: Banker, M.J et al. (2003) J. Pharm. Sci., 92:967–974[33],
as §5

[7] = Aqueous solubility (Eurofins bioavailability panel); format: physicochemical; conditions: kinetic from dmso stock
Protocol: as §4
Solubility: Lipinski, C.A et al. (2001) Adv Drug Del Rev, 46:3–26[32],
as §5

[8] = Caco-2 permeability; format: in vitro ADME; conditions: human; Caco-2, pH 6.5/7.4; 1.0E-05 M
Protocol: as §4
Caco-2 permeability: Hidalgo, I.J et al. (1989) Gastroenterology, 96:736–749[34],
as §5

Row | SMILES | IC50 [1] [nM] | IC50 [2] [µM] | IC50 [3] [µM] | Ki [4] [nM] | anti-platelet efficacy at lower concentration ([3]; collagen-induced) | also measured
1 | CC1(C)C(=O)N(CCN2CCN(c3cccc(C(F)(F)F)c3)CC2)C(=O)c2ccccc21 [Compound 5, 4,4-Dimethyl-2–(2-(4–(3-(trifluoromethyl)phenyl)piperazin-1-yl)ethyl)isoquinoline-1,3(2H,4H)-dione] | > 1000 | – | – | 703 ± 1 | – | –
2 | COc1cccc(N2CCN(CCN3C(=O)c4ccccc4C(C)(C)C3=O)CC2)c1 [Compound 6, 2–(2-(4–(3-Methoxyphenyl)piperazin-1-yl)ethyl)-4,4-dimethylisoquinoline-1,3(2H,4H)-dione] | > 1000 | – | – | 78.4 ± 3.8 | – | –
3 | CC1(C)C(=O)N(CCN2CCN(c3ncccn3)CC2)C(=O)c2ccccc21 [Compound 8, 4,4-Dimethyl-2–(2-(4-(pyrimidin-2-yl)piperazin-1-yl)ethyl)isoquinoline-1,3(2H,4H)-dione] | > 1000 | – | – | 1500 ± 100 | – | –
4 | CC1(C)C(=O)N(CCN2CCN(c3cccc4c3OCC(=O)N4)CC2)C(=O)c2ccccc21 [Compound 11, 4,4-Dimethyl-2–(2-(4–(3-oxo-3,4-dihydro-2H-benzo[b][1,4]oxazin-8-yl)piperazin-1-yl)ethyl)isoquinoline-1,3(2H,4H)-dione] | > 1000 | – | – | 3 ± 0.1 | – | –

Stronger by IC50 [1], values ahead:

Row | IC50 [1] [nM] | IC50 [2] [µM] | IC50 [3] [µM] | Ki [4] [nM] | SMILES | anti-platelet efficacy at lower concentration ([3]; collagen-induced) | also measured
5 | 758 ± 160 | – | – | 81.7 ± 5.5 | CC1(C)C(=O)N(CCN2CCN(c3cccc(O)c3)CC2)C(=O)c2ccccc21 [Compound 7, 2–(2-(4–(3-hydroxyphenyl)piperazin-1-yl)ethyl)-4,4-dimethylisoquinoline-1,3(2H,4H)-dione] | – | –
6 | 251 ± 71 | – | 34.5 ± 2.5 | 93 ± 2 | CC1(C)C(=O)N(CCN2CCN(c3cccc(Cl)c3)CC2)C(=O)c2ccccc21 [Compound 4, 2–(2-(4–(3-Chlorophenyl)piperazin-1-yl)ethyl)-4,4-dimethylisoquinoline-1,3(2H,4H)-dione] | significant anti-platelet efficacies | inhibition against ADP and adrenaline induced blood aggregation ([2]; up to 100 μM): did not exhibit any significant inhibition
7 | 61 ± 25.4 | 20.5 ± 7.1 | 26.9 ± 18.8 | 30 ± 1 | CC1(C)C(=O)N(CCN2CCN(c3cccc(F)c3)CC2)C(=O)c2ccccc21 [Compound 3, 2–(2-(4–(3-Fluorophenyl)piperazin-1-yl)ethyl)-4,4-dimethylisoquinoline-1,3(2H,4H)-dione] | significant anti-platelet efficacies | half-life at 100 nM ([5]; 1.0E-07 M): 14.1 min; microsomal CLint at 100 nM ([5]; 1.0E-07 M, read-out: Intrinsic clearance): 14 µL/min/mg; % Compound remaining ([5]; incubation time 0 minutes): 100.0%; % Compound remaining ([5]; incubation time 15 minutes): 49%; % Compound remaining ([5]; incubation time 30 minutes): 18%; % Compound remaining ([5]; incubation time 45 minutes): 8%; % Compound remaining ([5]; incubation time 60 minutes): 6%; % Protein bound [6]: 99%; solubility ([7]; PBS, pH 7.4, aqueous buffer): 5.4 µM (≈ 2.14 µg/mL); solubility ([7]; fassgf or other biorelevant, simulated intestinal fluid, test concentration 2.0E-04 M): 68 µM (≈ 26.9 µg/mL); solubility ([7]; simulated gastric fluid): 151 µM (≈ 59.7 µg/mL); Papp A→B at 10 µM [8]: 7.7 ×10⁻⁶ cm/s; Papp B→A at 10 µM [8]: 2.6 ×10⁻⁶ cm/s
8 | 61 ± 22.5 | 76.5 ± 5.8 | – | 10.3 ± 0.3 | CC1(C)C(=O)N(CCN2CCN(c3cccc4[nH]c(=O)oc34)CC2)C(=O)c2ccccc21 [Compound 10, 4,4-Dimethyl-2–(2-(4–(2-oxo-2,3-dihydrobenzo[d]oxazol-7-yl)piperazin-1-yl)ethyl)isoquinoline-1,3(2H,4H)-dione] | – | –
9 | 47 ± 12.8 | 54.4 ± 5.4 | 27.4 ± 5.3 | 30 ± 0.2 | CC1(C)Oc2cccc(N3CCN(CCN4C(=O)c5ccccc5C(C)(C)C4=O)CC3)c2O1 [Compound 9, 2–(2-(4–(2,2-Dimethylbenzo[d][1,3]dioxol-4-yl)piperazin-1-yl)ethyl)-4,4-dimethylisoquinoline-1,3(2H,4H)-dione] | significant anti-platelet efficacies | platelet aggregation attenuated to ([3]; collagen-induced, compound at 100 μM): 59.3%
10 | 8.4 ± 3.2 | 63.9 ± 21.3 | 20.7 ± 14.7 | 0.3 | COc1ccccc1N1CCN(CCN2C(=O)c3ccccc3C(C)(C)C2=O)CC1 [ARC-239, reference compound] | – | –
